Assays:
[1] = tested on: chickweed; assay: Test D postemergence; assay type: in vivo, Stellaria media; settings: scale 0 to 100
Excerpt: (§1) Seeds of plant species selected from bluegrass (annual bluegrass, Poa annua), blackgrass (Alopecurus myosuroides), canarygrass (Phalaris minor), chickweed (common chickweed, Stellaria media), galium (catchweed bedstraw, Galium aparine), bromegrass, down (downy bromegrass, Bromus tectorum), Russian thistle (Salsola kali), field poppy (Papaver rhoeas), field violet (Viola arvensis), foxtail, green (green foxtail, Setaria viridis), deadnettle (henbit deadnettle, Lamium amplexicaule), ryegrass, Ital. (Italian ryegrass, Lolium multiflorum), kochia (Kochia scoparia), lambsquarters (Chenopodium album), oilseed rape (Brassica napus), pigweed (Amaranthus retroflexus), chamomile (scentless chamomile, Matricaria inodora), speedwell (bird's-eye speedwell, Veronica persica), barley, spring (spring barley, Hordeum vulgare), wheat, spring (spring wheat, Triticum aestivum), buckwheat, wild (wild buckwheat, Polygonum convolvulus), wild mustard (Sinapis arvensis), oat, wild (wild oat, Avena fatua), radish, wild (wild radish, Raphanus raphanistrum), […]), barley, winter (winter barley, Hordeum vulgare), and wheat, winter (winter wheat, Triticum aestivum) were planted into a silt loam soil and treated preemergence with test chemicals formulated in a non-phytotoxic solvent mixture which included a surfactant. At the same time, these species were planted in pots containing Sunshine Redi-Earth® planting medium comprising spaghnum peat moss, vermiculite, starter nutrients and dolomitic limestone and treated with postemergence applications of the test chemicals formulated in the same manner. Plants ranged in height from 2 to 18 cm (1- to 4-leaf stage). Treated plants and controls were maintained in a controlled growth environment for 14 to 21 d after which time all species were compared to controls and visually evaluated. […] A dash (-) response means no test result.

[2] = tested on: foxtail, green; assay: Test D postemergence; assay type: in vivo, Setaria viridis; settings: scale 0 to 100
Excerpt: as §1

[3] = tested on: morningglory; assay: Test C preemergence; assay type: in vivo, Ipomoea coccinea; settings: for Plant response rating (scale of 0 to 100 where 0 is no effect and 100 is complete control): Morningglory, preemergence; for Morningglory plant response rating (0 to 100): Preemergence, visual rating after 13 to 15 d
Excerpt: (§2) Seeds of plant species selected from blackgrass (Alopecurus myosuroides), ryegrass, Italian (Italian ryegrass, Lolium multiflorum), wheat (winter wheat, Triticum aestivum), galium (catchweed bedstraw, Galium aparine), corn (Zea mays), crabgrass, large (large crabgrass, Digitaria sanguinalis), foxtail, giant, (giant foxtail, Setaria faberii), johnsongrass (Sorghum halepense), lambsquarters (Chenopodium album), morningglory (Ipomoea coccinea), nutsedge, yellow (yellow nutsedge, Cyperus esculentus), pigweed (Amaranthus retroflexus), ragweed (common ragweed, Ambrosia elatior), soybean (Glycine max), barnyardgrass (Echinochloa crus-galli), oilseed rape (Brassica napus), waterhemp (common waterhemp, Amaranthus rudis), and velvetleaf (Abutilon theophrasti) were planted into a blend of loam soil and sand and treated preemergence with test chemicals formulated in a non-phytotoxic solvent mixture which included a surfactant. At the same time, plants selected from these crop and weed species and also chickweed (common chickweed, Stellaria media), oat, wild (wild oat, Avena fatua), and kochia (Kochia scoparia), were planted in pots containing Sunshine Redi-Earth® planting medium comprising spaghnum peat moss, vermiculite, starter nutrients and dolomitic limestone and treated with postemergence applications of test chemicals formulated in the same manner. Plants ranged in height from 2 to 18 cm (1- to 4-leaf stage) for postemergence treatments. […] A dash (-) response means no test result.

[4] = tested on: pigweed; assay: Test C preemergence; assay type: in vivo, Amaranthus retroflexus; settings: for Plant response rating (scale of 0 to 100 where 0 is no effect and 100 is complete control): Pigweed, preemergence; for Pigweed plant response rating (0 to 100): Preemergence, visual rating after 13 to 15 d
Excerpt: as §2

[5] = tested on: bromegrass, down; assay: Test D postemergence; assay type: in vivo, Bromus tectorum; settings: scale 0 to 100
Excerpt: as §1

[6] = tested on: speedwell; assay: Test D preemergence; assay type: in vivo, Veronica persica; settings: for Plant response rating (0 to 100), Speedwell: 16 g ai/ha, 0 is no effect, 100 is complete control; for Plant response rating: Speedwell: scale 0 to 100
Excerpt: as §1

[7] = tested on: bluegrass; assay: Test D postemergence; assay type: in vivo, Poa annua; settings: scale 0 to 100
Excerpt: as §1

[8] = tested on: galium; assay: Test D preemergence; assay type: in vivo, Galium aparine; settings: for Plant response rating (0 to 100), Galium: 16 g ai/ha, 0 is no effect, 100 is complete control; for Plant response rating: Galium: scale 0 to 100
Excerpt: as §1

[9] = tested on: chamomile; assay: Test D preemergence; assay type: in vivo, Matricaria inodora; settings: for Plant response rating (0 to 100), Chamomile: 16 g ai/ha, 0 is no effect, 100 is complete control; for Plant response rating: Chamomile: scale 0 to 100
Excerpt: as §1

[10] = tested on: galium; assay: Test C preemergence; assay type: in vivo, Galium aparine; settings: for Plant response rating (scale of 0 to 100 where 0 is no effect and 100 is complete control): Galium, preemergence; for Galium plant response rating (0 to 100): Preemergence, visual rating after 13 to 15 d
Excerpt: as §2

[11] = tested on: barley, winter; assay: Test D postemergence; assay type: in vivo, Hordeum vulgare; settings: scale 0 to 100
Excerpt: as §1

[12] = tested on: barley, spring; assay: Test D postemergence; assay type: in vivo, Hordeum vulgare; settings: scale 0 to 100
Excerpt: as §1

`CCOc1nc(-c2ccc(C(F)(F)F)cc2)nn1Cc1ccnc(C(F)(F)F)c1` [Compound 35, 4-[[5-ethoxy-3-[4-(trifluoromethyl)phenyl]-1H-1,2,4-triazole-1-yl]methyl]-2-(trifluoromethyl)pyridine] was tested, and the “Plant response rating: Chickweed” value ([1]; 16 g ai/ha) was 70, the “Plant response rating: Chickweed” value ([1]; 31 g ai/ha) was 85 and the “Plant response rating: Chickweed” value ([1]; 62 g ai/ha) was 100. The “Plant response rating: Chickweed” value ([1]; 125 g ai/ha) was 100, the “Plant response rating: Foxtail, Green” value ([2]; 16 g ai/ha) was 70 and the “Plant response rating: Foxtail, Green” value ([2]; 31 g ai/ha) was 80. For the same molecule, the “Plant response rating: Foxtail, Green” value ([2]; 62 g ai/ha) was 95, the “Plant response rating: Foxtail, Green” value ([2]; 125 g ai/ha) was 95 and the “Plant response rating (scale of 0 to 100 where 0 is no effect and 100 is complete control)” value ([3]; 125 g ai/ha) was 80. The “Plant response rating (scale of 0 to 100 where 0 is no effect and 100 is complete control)” value ([3]; 250 g ai/ha) was 90, the “Morningglory plant response rating (0 to 100)” value ([3]; 31 g ai/ha) was 70 and the “Morningglory plant response rating (0 to 100)” value ([3]; 62 g ai/ha) was 60. The “Plant response rating (scale of 0 to 100 where 0 is no effect and 100 is complete control)” value ([4]; 125 g ai/ha) was 100, the “Plant response rating (scale of 0 to 100 where 0 is no effect and 100 is complete control)” value ([4]; 250 g ai/ha) was 100 and the “Pigweed plant response rating (0 to 100)” value ([4]; 31 g ai/ha) was 98. The “Pigweed plant response rating (0 to 100)” value ([4]; 62 g ai/ha) was 100, the “Plant response rating: Bromegrass, Down” value ([5]; 16 g ai/ha) was 40 and the “Plant response rating: Bromegrass, Down” value ([5]; 31 g ai/ha) was 55. For the same molecule, the “Plant response rating: Bromegrass, Down” value ([5]; 62 g ai/ha) was 60, the “Plant response rating: Bromegrass, Down” value ([5]; 125 g ai/ha) was 75 and the “Plant response rating (0 to 100), Speedwell” value [6] was 100. For the same molecule, the “Plant response rating: Speedwell” value ([6]; 62 g ai/ha) was 100, the “Plant response rating: Speedwell” value ([6]; 125 g ai/ha) was 100 and the “Plant response rating: Bluegrass” value ([7]; 16 g ai/ha) was 45. The “Plant response rating: Bluegrass” value ([7]; 31 g ai/ha) was 70, the “Plant response rating: Bluegrass” value ([7]; 62 g ai/ha) was 75 and the “Plant response rating: Bluegrass” value ([7]; 125 g ai/ha) was 95. For the same molecule, the “Plant response rating (0 to 100), Galium” value [8] was 70, the “Plant response rating: Galium” value ([8]; 62 g ai/ha) was 80 and the “Plant response rating: Galium” value ([8]; 125 g ai/ha) was 80. For the same molecule, the “Plant response rating (0 to 100), Chamomile” value [9] was 95, the “Plant response rating: Chamomile” value ([9]; 31 g ai/ha) was 100 and the “Plant response rating: Chamomile” value ([9]; 62 g ai/ha) was 100. The “Plant response rating: Chamomile” value ([9]; 125 g ai/ha) was 100, the “Plant response rating (scale of 0 to 100 where 0 is no effect and 100 is complete control)” value ([10]; 125 g ai/ha) was 90 and the “Plant response rating (scale of 0 to 100 where 0 is no effect and 100 is complete control)” value ([10]; 250 g ai/ha) was 90. For the same molecule, the “Galium plant response rating (0 to 100)” value ([10]; 31 g ai/ha) was 50, the “Galium plant response rating (0 to 100)” value ([10]; 62 g ai/ha) was 80 and the “Plant response rating: Barley, Winter” value ([11]; 16 g ai/ha) was 25. For the same molecule, the “Plant response rating: Barley, Winter” value ([11]; 31 g ai/ha) was 40, the “Plant response rating: Barley, Winter” value ([11]; 62 g ai/ha) was 40 and the “Plant response rating: Barley, Winter” value ([11]; 125 g ai/ha) was 50. For the same molecule, the “Plant response rating: Barley, Spring” value ([12]; 16 g ai/ha) was 30, the “Plant response rating: Barley, Spring” value ([12]; 31 g ai/ha) was 40 and the “Plant response rating: Barley, Spring” value ([12]; 62 g ai/ha) was 40. For the same molecule, the “Plant response rating: Barley, Spring” value ([12]; 125 g ai/ha) was 50.

In the case of `CCOc1nc(-c2ccccc2)nn1Cc1ccnc(C(F)(F)F)c1` [Compound 27], the “Plant response rating: Chickweed” value ([1]; 16 g ai/ha) is reported as 85, the “Plant response rating: Chickweed” value ([1]; 31 g ai/ha) is reported as 95 and the “Plant response rating: Chickweed” value ([1]; 62 g ai/ha) is reported as 100. For the same molecule, the “Plant response rating: Chickweed” value ([1]; 125 g ai/ha) was 100, the “Plant response rating: Foxtail, Green” value ([2]; 16 g ai/ha) was 35 and the “Plant response rating: Foxtail, Green” value ([2]; 31 g ai/ha) was 65. For the same molecule, the “Plant response rating: Foxtail, Green” value ([2]; 62 g ai/ha) was 80, the “Plant response rating: Foxtail, Green” value ([2]; 125 g ai/ha) was 95 and the “Plant response rating (scale of 0 to 100 where 0 is no effect and 100 is complete control)” value ([3]; 125 g ai/ha) was 100. For the same molecule, the “Plant response rating (scale of 0 to 100 where 0 is no effect and 100 is complete control)” value ([3]; 250 g ai/ha) was 95, the “Morningglory plant response rating (0 to 100)” value ([3]; 31 g ai/ha) was 20 and the “Morningglory plant response rating (0 to 100)” value ([3]; 62 g ai/ha) was 80. For the same molecule, the “Plant response rating (scale of 0 to 100 where 0 is no effect and 100 is complete control)” value ([4]; 125 g ai/ha) was 100, the “Plant response rating (scale of 0 to 100 where 0 is no effect and 100 is complete control)” value ([4]; 250 g ai/ha) was 100 and the “Pigweed plant response rating (0 to 100)” value ([4]; 31 g ai/ha) was 100. For the same molecule, the “Pigweed plant response rating (0 to 100)” value ([4]; 62 g ai/ha) was 100, the “Plant response rating: Bromegrass, Down” value ([5]; 16 g ai/ha) was 25 and the “Plant response rating: Bromegrass, Down” value ([5]; 31 g ai/ha) was 30. For the same molecule, the “Plant response rating: Bromegrass, Down” value ([5]; 62 g ai/ha) was 50, the “Plant response rating: Bromegrass, Down” value ([5]; 125 g ai/ha) was 65 and the “Plant response rating (0 to 100), Speedwell” value [6] was 95. For the same molecule, the “Plant response rating: Speedwell” value ([6]; 62 g ai/ha) was 100, the “Plant response rating: Speedwell” value ([6]; 125 g ai/ha) was 100 and the “Plant response rating: Bluegrass” value ([7]; 16 g ai/ha) was 35. For the same molecule, the “Plant response rating: Bluegrass” value ([7]; 31 g ai/ha) was 60, the “Plant response rating: Bluegrass” value ([7]; 62 g ai/ha) was 65 and the “Plant response rating: Bluegrass” value ([7]; 125 g ai/ha) was 70. The “Plant response rating (0 to 100), Galium” value [8] was 70, the “Plant response rating: Galium” value ([8]; 62 g ai/ha) was 100 and the “Plant response rating: Galium” value ([8]; 125 g ai/ha) was 100. For the same molecule, the “Plant response rating (0 to 100), Chamomile” value [9] was 10, the “Plant response rating: Chamomile” value ([9]; 31 g ai/ha) was 90 and the “Plant response rating: Chamomile” value ([9]; 62 g ai/ha) was 100. The “Plant response rating: Chamomile” value ([9]; 125 g ai/ha) was 100, the “Plant response rating (scale of 0 to 100 where 0 is no effect and 100 is complete control)” value ([10]; 125 g ai/ha) was 95 and the “Plant response rating (scale of 0 to 100 where 0 is no effect and 100 is complete control)” value ([10]; 250 g ai/ha) was 95. For the same molecule, the “Galium plant response rating (0 to 100)” value ([10]; 31 g ai/ha) was 90, the “Galium plant response rating (0 to 100)” value ([10]; 62 g ai/ha) was 95 and the “Plant response rating: Barley, Winter” value ([11]; 16 g ai/ha) was 15. The “Plant response rating: Barley, Winter” value ([11]; 31 g ai/ha) was 25, the “Plant response rating: Barley, Winter” value ([11]; 62 g ai/ha) was 30 and the “Plant response rating: Barley, Winter” value ([11]; 125 g ai/ha) was 35. The “Plant response rating: Barley, Spring” value ([12]; 16 g ai/ha) was 25, the “Plant response rating: Barley, Spring” value ([12]; 31 g ai/ha) was 25 and the “Plant response rating: Barley, Spring” value ([12]; 62 g ai/ha) was 35. For the same molecule, the “Plant response rating: Barley, Spring” value ([12]; 125 g ai/ha) was 35.
